From the NIST ThermoML archive (doi:10.1021/acs.jced.8b00975)

Assay: xn = mol fraction of the nth substance listed
Details: Liquid, Vibrating tube method

C=C(C)C(=O)OCCN(C)C [2-(dimethylamino)ethyl methylpropenoate] + CCO
mass density [kg/m3]
Details | 100 kPa | 5000 kPa | 10000 kPa | 15000 kPa | 20000 kPa | 25000 kPa | 30000 kPa | 35000 kPa
293.15 K, x1 = 0.0298 | 802.7 | 807.13 | 811.22 | 815.04 | 818.66 | 822.14 | 825.55 | 828.95
293.15 K, x1 = 0.0598 | 814.88 | 819.12 | 823.12 | 826.9 | 830.51 | 834 | 837.41 | 840.78
293.15 K, x1 = 0.0999 | 829.26 | 833.46 | 837.4 | 841.12 | 844.67 | 848.1 | 851.44 | 854.75
293.15 K, x1 = 0.1997 | 856.9 | 861.05 | 864.9 | 868.5 | 871.93 | 875.24 | 878.49 | 881.75
293.15 K, x1 = 0.3001 | 876.95 | 880.93 | 884.66 | 888.19 | 891.58 | 894.86 | 898.09 | 901.32
293.15 K, x1 = 0.3966 | 891.39 | 895.28 | 898.93 | 902.38 | 905.7 | 908.93 | 912.15 | 915.39
293.15 K, x1 = 0.4472 | 897.49 | 901.33 | 904.98 | 908.47 | 911.83 | 915.1 | 918.3 | 921.47
293.15 K, x1 = 0.4982 | 902.96 | 906.87 | 910.51 | 913.95 | 917.24 | 920.43 | 923.58 | 926.74
293.15 K, x1 = 0.55 | 907.68 | 911.66 | 915.32 | 918.74 | 921.98 | 925.14 | 928.28 | 931.5
293.15 K, x1 = 0.5964 | 911.67 | 915.5 | 919.12 | 922.56 | 925.87 | 929.09 | 932.25 | 935.39
293.15 K, x1 = 0.6982 | 918.77 | 922.55 | 926.15 | 929.6 | 932.93 | 936.16 | 939.33 | 942.44
293.15 K, x1 = 0.801 | 924.6 | 928.44 | 932.04 | 935.46 | 938.75 | 941.94 | 945.09 | 948.24
293.15 K, x1 = 0.8977 | 929.03 | 932.82 | 936.35 | 939.69 | 942.92 | 946.09 | 949.28 | 952.57
293.15 K, x1 = 0.9283 | 930.22 | 934.07 | 937.67 | 941.06 | 944.32 | 947.48 | 950.62 | 953.79
293.15 K, x1 = 0.9578 | 931.42 | 935.21 | 938.78 | 942.2 | 945.49 | 948.71 | 951.88 | 955.05
303.15 K, x1 = 0.03 | 794.45 | 798.97 | 803.18 | 807.13 | 810.87 | 814.43 | 817.87 | 821.22
303.15 K, x1 = 0.0603 | 806.55 | 811.05 | 815.24 | 819.16 | 822.87 | 826.4 | 829.79 | 833.08
303.15 K, x1 = 0.1002 | 820.45 | 824.89 | 829.01 | 832.87 | 836.53 | 840.03 | 843.44 | 846.8
303.15 K, x1 = 0.2021 | 848.13 | 852.39 | 856.38 | 860.15 | 863.75 | 867.22 | 870.62 | 873.98
303.15 K, x1 = 0.3014 | 867.56 | 871.73 | 875.66 | 879.39 | 882.96 | 886.41 | 889.8 | 893.16
303.15 K, x1 = 0.4003 | 882.15 | 886.21 | 890.08 | 893.8 | 897.38 | 900.86 | 904.27 | 907.64
303.15 K, x1 = 0.4499 | 888.16 | 892.11 | 895.91 | 899.59 | 903.17 | 906.65 | 910.06 | 913.41
303.15 K, x1 = 0.5006 | 893.42 | 897.42 | 901.25 | 904.92 | 908.47 | 911.94 | 915.35 | 918.74
303.15 K, x1 = 0.5488 | 897.81 | 901.82 | 905.64 | 909.31 | 912.87 | 916.34 | 919.76 | 923.18
303.15 K, x1 = 0.5998 | 902.09 | 906.13 | 909.95 | 913.6 | 917.13 | 920.59 | 924.04 | 927.53
303.15 K, x1 = 0.703 | 909.18 | 913.16 | 916.96 | 920.63 | 924.18 | 927.67 | 931.11 | 934.54
303.15 K, x1 = 0.8012 | 914.76 | 918.73 | 922.51 | 926.15 | 929.69 | 933.18 | 936.65 | 940.15
303.15 K, x1 = 0.9025 | 919.51 | 923.46 | 927.24 | 930.9 | 934.45 | 937.94 | 941.4 | 944.86
303.15 K, x1 = 0.9288 | 920.51 | 924.41 | 928.15 | 931.75 | 935.26 | 938.73 | 942.19 | 945.69
303.15 K, x1 = 0.9594 | 921.58 | 925.48 | 929.24 | 932.89 | 936.45 | 939.94 | 943.39 | 946.82
313.15 K, x1 = 0.0301 | 785.54 | 790.39 | 794.86 | 799.04 | 802.99 | 806.8 | 810.55 | 814.3
313.15 K, x1 = 0.0604 | 797.46 | 802.1 | 806.49 | 810.66 | 814.64 | 818.45 | 822.15 | 825.75
313.15 K, x1 = 0.1009 | 811.29 | 815.85 | 820.14 | 824.2 | 828.09 | 831.85 | 835.51 | 839.13
313.15 K, x1 = 0.2013 | 838.49 | 842.83 | 846.98 | 850.95 | 854.76 | 858.45 | 862.02 | 865.49
313.15 K, x1 = 0.302 | 858.03 | 862.37 | 866.49 | 870.43 | 874.22 | 877.88 | 881.45 | 884.95
313.15 K, x1 = 0.401 | 872.35 | 876.61 | 880.69 | 884.61 | 888.4 | 892.06 | 895.62 | 899.08
313.15 K, x1 = 0.4507 | 878.39 | 882.61 | 886.65 | 890.55 | 894.31 | 897.94 | 901.47 | 904.89
313.15 K, x1 = 0.4984 | 883.4 | 887.63 | 891.71 | 895.63 | 899.4 | 903.03 | 906.52 | 909.87
313.15 K, x1 = 0.553 | 888.58 | 892.77 | 896.81 | 900.7 | 904.45 | 908.07 | 911.57 | 914.96
313.15 K, x1 = 0.6053 | 892.9 | 897.11 | 901.15 | 905.03 | 908.77 | 912.39 | 915.89 | 919.29
313.15 K, x1 = 0.7041 | 899.74 | 903.88 | 907.89 | 911.79 | 915.55 | 919.19 | 922.7 | 926.09
313.15 K, x1 = 0.8027 | 905.5 | 909.63 | 913.65 | 917.54 | 921.29 | 924.91 | 928.37 | 931.68
313.15 K, x1 = 0.9016 | 910.19 | 914.28 | 918.27 | 922.15 | 925.92 | 929.56 | 933.08 | 936.46
313.15 K, x1 = 0.9342 | 911.48 | 915.6 | 919.6 | 923.48 | 927.25 | 930.89 | 934.42 | 937.83
313.15 K, x1 = 0.9607 | 912.61 | 916.71 | 920.71 | 924.61 | 928.4 | 932.04 | 935.54 | 938.88
